The values that follow come from patent US8178579B2, “Dioxanes and uses thereof” (President and Fellows of Harvard College, priority 2001, dated 2012).

Each structure is given as a SMILES string. Entries after “also recorded” stand apart in the source; their conditions may differ.

For this test, the system named is microtubules in A549 cells. In words: microtubule stability to nocodazole, cold or calcium depolymerization and repolymerization. It is filed as cell-based, human. To be noted: tubacin 2 μM. As for the experimental part:
Detection of acetylated α-tubulin and acetylated histones by immunofluorescence was performed as described in Example 6 above. For determining microtubule stability, A549 cells were treated as indicated, fixed in glutaraldehyde, and stained for acetylated α-tubulin and total α-tubulin in antibody dilution buffer (ADB, Tris-buffered saline (TBS), 0.15 M NaCl, 0.02 M Tris-Cl, pH 7.4, with 2% bovine serum albumin and 0.1% Triton-X 100). For cold-depolymerization, cells were incubated at 4° C. or 37° C. for an additional 90 minutes before fixation. For calcium depolymerization, cells were incubated at 37° C. for 10 minutes in a microtubule-stabilizing buffer (0.2% NP-40, 5 mM MgCl2, 2 mM EGTA, 2 M glycerol, 100 mM PIPES, pH 6.8) with and without the addition of CaCl2 (2 mM) before glutaraldehyde fixation. For co-localization experiments, biotubacin (50 μM) treated A549 cells were fixed in 3.7% formaldehyde in TBS and processed as for detecting acetylated α-tubulin (See Example 6 above) with biotubacin detected using streptavidin-TR (1:500). HDAC6 was detected using a rabbit polyclonal antibody (1:250-1:750; C.M.G., unpublished data) under the conditions used to detect acetylated α-tubulin (See Example 6 above). Filamentous actin in HT-1080 cells was detected using TR-conjugated phalloidin (1 μg/mL), and depolymerized actin using FITC-conjugated deoxyribonuclease (10 μg/mL), following fixation in 3.7% formaldehyde in TBS. p58 (1:100) in NIH-3T3 cells was detected after fixation in 3.7% formaldehyde in TBS. Images for these experiments were collected on a Zeiss LSM510 confocal scanning laser microscope at the appropriate wavelengths using the accompanying software and processed with Adobe Photoshop. Deconvoluted serial images of TSA and DMSO treated A549 cells were obtained by taking sections (8μ) on a Zeiss Axioskop 2 microscope using an AxioCam camera and the accompanying software. Rat hippocampal neuronal cultures were fixed at room temperature for 15 min in phosphate-buffered saline (PBS) containing 4% paraformaldehyde. […]

For `O=C(CCCCCCC(=O)Nc1ccc([C@@H]2OC(c3ccc(CO)cc3)C[C@H](CSc3nc(-c4ccccc4)c(-c4ccccc4)o3)O2)cc1)NO` (some centres unmarked) [tubacin], the “polymerization of microtubules after removal of nocodazole” value (ITSA1 50 μM) was “neither tubacin nor ITSA1 (50 μM; 30 minutes) prevents the repolymerization of microtubules; also recorded: neither tubacin nor ITSA1 prevented the polymerization of microtubules”. Besides, under “nocodazole 332 nM, cold 4 °C 90 min, or 2 mM CaCl2”, the “stability of microtubules to depolymerization” value was “No effect of tubacin (2 μM) pre-treatment (4 h) on the stability of microtubules to nocodazole; also recorded: Microtubule depolymerization by nocodazole (332 nM; 5 h) is dominant to the effects of tubacin; also recorded: No effect of tubacin on the stability of microtubules to cold-depolymerization; also recorded: no stabilization of microtubules to any of the depolymerizing conditions tested”.
